Columns and labels:
Type in all cases: cell-based
tumor spheroids (UMR106) = experiment: Biodynamic spectroscopic imaging (BSI) of mitosis events in tumor spheroids, single-band thresholding (Taxol treatment)
Excerpt: The mitosis phase has its own fingerprint because mitosis is one of the most dramatic events in a cell's life. However compared to the dynamic speckle from an entire tumor spheroid, the signal of the mitosis of a single cell is very weak. The statistical TDS technique is not able to show the mitosis events of single cells. On the other hand, BSI may be applied to generate a voxel based microspectrograms. In the current TDS system, the transverse and longitudinal resolution are 9 μm and 18 μm, and the typical size of UMR106 cell in tumor spheroid is about 10 um. Therefore, on the reconstructed image, each pixel contains about 4 cells. However the spectrum of a single pixel is too noisy to perform analysis, so 2×2 pixels can be preferably used as the balance point to calculate the spectra of the voxels. Thus, according to one aspect of the BSI method disclosed herein, the 3D image is reconstructed as voxels, rather than pixels, in which a voxel includes 2×2 pixels. The microspectrograms are then generated for each voxel, rather than pixel, which substantially eliminates the effect of noise in the image.
Therefore, for a single voxel, the normalized spectra from five datasets (20 mins) can be averaged together, with no risk of “missing” a biological event of the cell. By combining these normalized spectra together, the micro (voxel) spectrograms are generated. The baseline is the averaged spectrum over the entire tissue when it is only surrounded by growth medium. During the entire experimental period, each voxel corresponds to one spectrogram. A frequency vs. time fluctuation spectral response image of the tumor spheroid is constructed.
The frequency range is picked at a mid-high frequency band (0.52 Hz to 1 Hz, marked as a box in FIG. 7) and enhancement is picked as the finger print of the mitosis. The enhancement in this frequency range indicates both cell membrane undulation and cell organelle motion during mitosis. […] The prior approach discussed above referred to single-band thresholding that used the third case baseline described above as essentially a pixel-based TDS. This pixel-based TDS approach fails to isolate mitosis from other biological processes and to isolate mitosis from noise. Therefore, single-band thresholding only correctly acquires mitosis information when using the first or second case baselines described above.
Paclitaxel is a mitotic inhibitor used as an anti-cancer drug. It can stabilize microtubules so that cell division during mitosis can be interrupted. Experiments were performed using 2 concentrations of Paclitaxel: 1 μg/ml and 10 μg/ml. The tumor spheroids in these experiments were 430 μm diameter (1 μg/ml) and 410 μm diameter (10 μg/ml). The baselines were taken as described above. After 40 minutes, the original growth medium was replaced by medium with Paclitaxel. The data was collected for six hours, and the resulting macrospectrograms of the experiments are shown in FIG. 9b for 1 μg/ml and FIG. 9c for 10 μg/ml.
The thresholding used in this example is based on the single-band method using the first case baseline described above that averages the baseline over all pixels for all times. […] Each light speckle in each image represents a mitosis event. […] The mitosis events depicted in the BSI images of FIG. 10 are quantified in the graph of FIG. 11. The y-axis of the graph is the density of the voxels which are in the mitosis phase expressed as a fraction of the mitotic voxels to the total number of voxels for the underlying image. […]

DLD-1 tumor spheroid = experiment: BSI imaging of tumor heterogeneity of drug response in DLD-1 tumor spheroid
Excerpt: In a previous co-pending application Ser. No. 13/760,827, entitled “System and Method for Determining Modified States of Health of Living Tissue”, filed on Feb. 6, 2013, and published as Pub. No. 2013/0144151 (the '151 application), the entire disclosure of which is incorporated herein by reference, a method is described that uses time-frequency masks to extract feature vectors. Multiple masks are used to create feature vectors that are then used to classify a drug response. In accordance with the present disclosure, the BSI techniques described herein can use the same or similar time-frequency masks to capture different mechanisms related to the drug action, and then perform the analysis on a per-pixel basis to generate “hyperspectral” maps of the tumor response to drugs. Because the signal-to-noise of single-pixel power spectra for biodynamic spectroscopic imaging (BSI) is not as large as for tissue dynamics spectroscopy (TDS) that averages over many pixels, it is necessary to modify the time-frequency mask from that described in the '151 application. The time-frequency spectral power density is given by S(ω,T). This power spectrum typically has a power-law decay at higher frequencies, with several orders of magnitude in vertical dynamic range. […]

[1] = system: ex vivo biopsy sample of canine multicentric B-cell lymphoma; experiment: BSI of drug response of ex vivo biopsy sample; details: two-color pixel map
Excerpt: An additional example of BSI is shown in FIG. 18 for an ex vivo biopsy sample of canine multicentric B-cell lymphoma. […] This signature is coded in green in the BSI image. The other spectral signature had low-frequency enhancement and high-frequency suppression, which is coded as red in the BSI image. […] This ex vivo biopsy is responding to the anticancer drug doxorubicin.

How did the “mitotic events, fraction of mitotic voxels to total voxels over time (FIG. 11)” value (tumor spheroids (UMR106); 1 μg/ml, 430 μm diameter spheroid, compared with negative controls) turn out when `CC(=O)O[C@H]1C(=O)[C@@]2(C)[C@H]([C@H](OC(=O)c3ccccc3)[C@]3(O)C[C@H](OC(=O)[C@H](O)[C@@H](NC(=O)c4ccccc4)c4ccccc4)C(C)=C1C3(C)C)[C@]1(OC(C)=O)CO[C@@H]1C[C@@H]2O` [Paclitaxel] was run?
Its value is “fewer mitotic events and decayed faster”.

And the “mitosis remaining after drug application (FIG. 11)” value (tumor spheroids (UMR106); 1 μg/ml, six hours after applying)?
The value was “still slight mitosis”.

What about the “mitotic events, fraction of mitotic voxels to total voxels over time (FIG. 11)” value (tumor spheroids (UMR106); 410 μm diameter spheroid) of the same molecule?
The value was “decayed the fastest”.

What about the “mitosis activity inside the tumor spheroids (BSI images, FIG. 10)” value (tumor spheroids (UMR106); Taxol treated vs untreated, single-band threshold 0.52-1.0 Hz, nearly six hours) of the same molecule?
The value was “significantly reduced”.

And the “mitosis remaining after drug application (FIG. 11)” value (tumor spheroids (UMR106); two hours after applying the drug)?
Its value is “almost no mitosis at all”.

Which “homogeneity of the response across the specimen (FIGS. 16c, 17)” value (DLD-1 tumor spheroid; BSI image and classification map) does the source give for `CNC(=O)c1cc(Oc2ccc(NC(=O)Nc3ccc(Cl)c(C(F)(F)F)c3)cc2)ccn1` [Sorafenib] here?
The value was “majority of the specimen is unaffected or only slightly affected”.

What about the “BSI spectral response to drug, spatial distribution (FIG. 16c)” value (DLD-1 tumor spheroid; spheroid approximately 600 microns in diameter, periphery vs interior) of the same molecule?
Its value is “highest magnitude in the proliferating shell, with low (dark) response internal to the tumor”.

`COc1cccc2c1C(=O)c1c(O)c3c(c(O)c1C2=O)C[C@@](O)(C(=O)CO)C[C@@H]3O[C@H]1C[C@H](N)[C@H](O)[C@H](C)O1` [doxorubicin] was tested. Which “BSI spectral responses of tissue to drug (FIG. 18)” value [1] did it give?
Its value is “two very different spectral responses”.
